These results are taken from patent US10561763B2, “Oxygen generating biomaterial” (THE BOARD OF REGENTS OF THE UNIVERSITY OF TEXAS SYSTEM, priority 2013, dated 2020).

The data set can be described thus: half-life of thermal oxygen release (thermolysis) of endoperoxides in CDCl3 at 25° C. In kind it is physicochemical. Particulars: CDCL3, 25° C. The text has this:
In certain aspect an oxygen generating biomaterial can comprise a fast release thermolytic endoperoxide, a slow release thermolytic endoperoxide, or a slow release thermolytic endoperoxide and a fast release endoperoxide. A biomaterial can further comprise a singlet oxygen quencher. […] The ti/2 half-life is temperature dependent. This aids in both storage and release. The ti/2 is longer the lower the storage temperatures. […] The endoperoxide oxygen-carrier is most conveniently prepared by photo-oxidation of a precursor aromatic organic compound. The structure of the endoperoxide-forming compound determines its thermal stability and thus how rapidly oxygen is released and precursor compound reformed (via a “retro-Diels-Alder reaction”) at any given temperature. At body temperature the half-life (ti/2) for thermal release of ^1O2 from an endoperoxide (also known as “thermolysis”) can range from seconds to days. By combining two or more endoperoxide compounds, one with a relatively slow release rate (long ti/2) at the working temperature, and one or more with faster release rates (short ti/2), it is possible to form delivery systems with a wide range of rates, durations, and profiles of oxygen generation to suit a variety of end-use applications. In some applications it is possible to design a system that could be recharged by photo-oxidizing the reformed precursor compound(s). FIG. 1 illustrates an example of the chemistry involved.
With `CC1=C(C)C2(C)OOC1(C)c1ccccc12` [1,2,3,4-tetramethylnaphthalene-1,4-endoperoxide], the “ti/2 in hours as measured in the presence of CDCL3 at 25° C.” value is on record as “indeterminant”. Under `CC1=CC2(C)OOC1(C)c1ccccc12` (centres unmarked) [1,2,4-trimethylnaphthalene-1,4-endoperoxide] stands 70 h; under `Cc1cccc2c1C1(C)C=CC2(C)OO1` (centres unmarked) [1,4,5-trimethylnaphthalene-1,4-endoperoxide], 290 h; under `CC12C=CC(C)(OO1)c1ccccc12` [1,4-dimethylnaphthalene-1,4-endoperoxide], 5 h. Next, `Cc1cccc2c1C1(C)C=CC2OO1` (centres unmarked) [1,8-dimethylnaphthalene-1,4-endoperoxide]: 30 h.
